# Reference: patent US10807952B2 (Achillion Pharmaceuticals, Inc., priority 2015, dated 2020)
# Molecular target: Human Factor D (Homo sapiens (Human), UniProt P00746)
# Experiment: Human Factor D assay (Z-L-Lys-SBzl / DTNB, absorbance at 405 nm)
# Assay type: biochemical
# Conditions: Table 3; Human Factor D 80 nM, assay of Example 13
# Description: Human Factor D (purified from human serum, Complement Technology, Inc.) at 80 nM final concentration was incubated with test compound at various concentrations for 5 minutes at room temperature in 50 mM Tris, 1M NaCl, pH 7.5. A synthetic substrate Z-L-Lys-SBzl and DTNB (Ellman's reagent) were added to final concentrations of 100 μM each. […] IC50 values were calculated by nonlinear regression of complement Factor D reaction rates as a function of test compound concentration.
# Sequence of Human Factor D (P00746 26-253): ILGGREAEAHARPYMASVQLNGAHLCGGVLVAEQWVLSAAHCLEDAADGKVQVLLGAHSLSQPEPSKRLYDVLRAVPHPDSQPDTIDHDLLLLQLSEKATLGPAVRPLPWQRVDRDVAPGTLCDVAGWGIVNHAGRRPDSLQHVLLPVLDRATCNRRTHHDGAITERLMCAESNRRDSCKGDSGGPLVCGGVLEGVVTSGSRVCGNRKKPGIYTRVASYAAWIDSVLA
row,SMILES,IC50 [nM]
1,"CC(=O)c1cn(CC(=O)OC(C)(C)C)c2cc(-c3cccc(NC(=O)[C@@H]4C[C@@H](F)CN4C(=O)Cn4nc(C(N)=O)c5ccccc54)c3F)ccc12 [Compound 30, tert-butyl 2-(3-acetyl-6-(3-((2S,4R)-1-(2-(3-carbamoyl-1H-indazol-1-yl)acetyl)-4-fluoropyrrolidine-2-carboxamido)-2-fluorophenyl)-1H-indol-1-yl)acetate]",1000 to 10000
2,"CC(=O)c1cn(CC(=O)O)c2cc(-c3cccc(NC(=O)[C@@H]4C[C@@H](F)CN4C(=O)Cn4nc(C(N)=O)c5ccccc54)c3F)ccc12 [Compound 31, 2-(3-acetyl-6-(3-((2S,4R)-1-(2-(3-carbamoyl-1H-indazol-1-yl)acetyl)-4-fluoropyrrolidine-2-carboxamido)-2-fluorophenyl)-1H-indol-1-yl)acetic acid]",1000 to 10000
3,"N#Cc1n[nH]c2cc(-c3cccc(NC(=O)[C@@H]4C[C@@H](F)CN4C(=O)Cn4nc(C(N)=O)c5ccccc54)c3F)ccc12 [Compound 32, 1-(2-((2S,4R)-2-(3-(3-cyano-1H-indazol-6-yl)-2-fluorophenyl-carbamoyl)-4-fluoropyrrolidin-1-yl)-2-oxoethyl)-1H-indazole-3-carboxamide]",< 1000
4,"NC(=O)c1nn(CC(=O)N2C[C@H](F)C[C@H]2C(=O)Nc2cccc(-c3ccccc3Cl)c2F)c2cc(C(F)(F)F)sc12 [Compound 33, 1-(2-((2S,4R)-2-(2′-chloro-2-fluorobiphenyl-3-ylcarbamoyl)-4-fluoropyrrolidin-1-yl)-2-oxoethyl)-5-(trifluoromethyl)-1H-thieno[3,2-c]pyrazole-3-carboxamide]",< 1000
5,"NC(=O)c1ccc(Cl)c(-c2cccc(NC(=O)[C@@H]3C[C@@H](F)CN3C(=O)Cn3nc(C(N)=O)c4sc(C(F)(F)F)cc43)c2F)c1 [Compound 39, 1-(2-((2S,4R)-2-((5′-Carbamoyl-2′-chloro-2-fluoro-[1,1′-biphenyl]-3-yl)carbamoyl)-4-fluoropyrrolidin-1-yl)-2-oxoethyl)-5-(trifluoromethyl)-1H-thieno[3,2-c]pyrazole-3-carboxamide]",< 1000
6,"NC(=O)c1nn(CC(=O)N2C[C@H](F)C[C@H]2C(=O)Nc2cccc(Br)n2)c2cc(S(F)(F)(F)(F)F)ccc12 [Compound 40, 1-(2-((2S,4R)-2-((6-Bromopyridin-2-yl)carbamoyl)-4-fluoropyrrolidin-1-yl)-2-oxoethyl)-6-(pentafluoro-λ^6-sulfanyl)-1H-indazole-3-carboxamide]",< 1000
7,"O=C(Nc1cccc(-c2ccccc2Cl)c1F)[C@@H]1C[C@@H](F)CN1C(=O)Cc1cccc(Br)n1 [Compound 41, (2S,4R)-1-(2-(6-bromopyridin-2-yl)acetyl)-N-(2′-chloro-2-fluorobiphenyl-3-yl)-4-fluoropyrrolidine-2-carboxamide]",1000 to 10000
8,O=C(Nc1cccc(-c2ccccc2Cl)c1F)[C@@H]1C[C@@H](F)CN1C(=O)Cc1cccc(Cl)c1 [Compound 42],< 1000
9,"NC(=O)c1nn(CC(=O)N2C[C@H](F)C[C@H]2C(=O)Nc2cccc(-c3ccc4nc(F)[nH]c4c3Cl)c2F)c2ccccc12 [Compound 44, 1-(2-((2S,4R)-2-(3-(7-chloro-2-fluoro-1H-benzo[d]imidazol-6-yl)-2-fluorophenyl-carbamoyl)-4-fluoropyrrolidin-1-yl)-2-oxoethyl)-1H-indazole-3-carboxamide]",< 1000
10,NC(=O)c1nn(CC(=O)N2C[C@H](F)C[C@H]2C(=O)Nc2cccc(-c3ccccc3Cl)c2F)c2cc(S(F)(F)(F)(F)F)ccc12 [Compound 45],< 1000
11,NC(=O)c1nn(CC(=O)N2C[C@H](F)C[C@H]2C(=O)Nc2cccc(C(=O)Nc3nc4cccc(Cl)c4[nH]3)c2F)c2ccccc12 [Compound 46],< 1000
12,NC(=O)c1nn(CC(=O)N2C[C@H](F)C[C@H]2C(=O)Nc2cccc(-c3ccc4cn[nH]c4c3Cl)c2F)c2ccccc12 [Compound 47],< 1000
13,"COc1cc(Br)cc(CC(=O)N2C[C@H](F)C[C@H]2C(=O)Nc2cccc(-c3ccccc3Cl)c2F)c1 [Compound 48, (2S,4R)-1-(2-(3-bromo-5-methoxyphenyl)acetyl)-N-(2′-chloro-2-fluorobiphenyl-3-yl)-4-fluoropyrrolidine-2-carboxamide]",< 1000
14,"Cc1cc2c(s1)c(C(N)=O)nn2CC(=O)N1C[C@H](F)C[C@H]1C(=O)Nc1cccc(-c2cc(C(N)=O)ccc2Cl)c1F [Compound 49, 1-(2-((2S,4R)-2-(5′-carbamoyl-2′-chloro-2-fluorobiphenyl-3-ylcarbamoyl)-4-fluoropyrrolidin-1-yl)-2-oxoethyl)-5-methyl-1H-thieno[3,2-c]pyrazole-3-carboxamide]",< 1000
15,"NC(=O)c1nn(CC(=O)N2C[C@H](F)C[C@H]2C(=O)Nc2cccc(-c3cnc4nc[nH]c4c3Cl)c2F)c2ccccc12 [Compound 50, 1-(2-((2S,4R)-2-(3-(7-chloro-1H-imidazo[4,5-b]pyridin-6-yl)-2-fluorophenyl-carbamoyl)-4-fluoropyrrolidin-1-yl)-2-oxoethyl)-1H-indazole-3-carboxamide]",< 1000
16,"CC(C)(C)OC(=O)NCC(=O)c1ccc(Cl)c(-c2cccc(NC(=O)[C@@H]3C[C@@H](F)CN3C(=O)Cn3nc(C(N)=O)c4ccccc43)c2F)c1 [Compound 51, tert-butyl 2-(3′-((2S,4R)-1-(2-(3-carbamoyl-1H-indazol-1-yl)acetyl)-4-fluoropyrrolidine-2-carboxamido)-6-chloro-2′-fluorobiphenyl-3-yl)-2-oxoethylcarbamate]",< 1000
17,"NC(=O)c1nn(CC(=O)N2C[C@H](F)C[C@H]2C(=O)Nc2cccc(-c3ccc4scnc4c3)c2F)c2ccccc12 [Compound 52, 1-(2-((2S,4R)-2-(3-(benzo[d]thiazol-5-yl)-2-fluorophenyl-carbamoyl)-4-fluoropyrrolidin-1-yl)-2-oxoethyl)-1H-indazole-3-carboxamide]",< 1000
18,NC(=O)c1cn(CC(=O)N2CCC[C@H]2C(=O)Nc2cccc(-c3ccccc3Cl)c2F)n2ccnc12 [Compound 54],> 10000
19,"NC(=O)c1cn(CC(=O)N2C[C@H](F)C[C@H]2C(=O)Nc2cccc(Br)n2)n2ccnc12 [Compound 55, 5-(2-((2S,4R)-2-(6-bromopyridin-2-ylcarbamoyl)-4-fluoropyrrolidin-1-yl)-2-oxoethyl)-5H-imidazo[1,2-b]pyrazole-7-carboxamide]",> 10000
20,"NC(=O)c1nn(CC(=O)N2C[C@H](F)C[C@H]2C(=O)Nc2cccc(-c3ccc4ocnc4c3)c2F)c2ccccc12 [Compound 57, 1-(2-((2S,4R)-2-(3-(benzo[d]oxazol-5-yl)-2-fluorophenyl-carbamoyl)-4-fluoropyrrolidin-1-yl)-2-oxoethyl)-1H-indazole-3-carboxamide]",< 1000
21,"NC(=O)c1cn(CC(=O)N2C[C@H](F)C[C@H]2C(=O)Nc2cccc(-c3ccccc3Cl)c2F)n2ccnc12 [Compound 58, 5-(2-((2S,4R)-2-(2′-chloro-2-fluorobiphenyl-3-ylcarbamoyl)-4-fluoropyrrolidin-1-yl)-2-oxoethyl)-5H-imidazo[1,2-b]pyrazole-7-carboxamide]",1000 to 10000
22,"NC(=O)c1nn(CC(=O)N2C[C@H](F)C[C@H]2C(=O)Nc2cccc(-c3ccc4c(c3Cl)NC(=O)CN4)c2F)c2ccccc12 [Compound 59, 1-(2-((2S,4R)-2-((3-(5-Chloro-3-oxo-1,2,3,4-tetrahydroquinoxalin-6-yl)-2-fluorophenyl)carbamoyl)-4-fluoropyrrolidin-1-yl)-2-oxoethyl)-1H-indazole-3-carboxamide]",< 1000
23,"CC(=O)n1cc(CC(=O)N2C[C@H](F)C[C@H]2C(=O)Nc2cccc(-c3ccccc3Cl)c2F)c2ccc(-c3cnc(C)nc3)cc21 [Compound 60, (2S,4R)-1-(2-(1-acetyl-6-(2-methylpyrimidin-5-yl)-1H-indol-3-yl)acetyl)-N-(2′-chloro-2-fluorobiphenyl-3-yl)-4-fluoropyrrolidine-2-carboxamide]",< 1000
24,"CC(=O)n1cc(CC(=O)N2C[C@H](F)C[C@H]2C(=O)Nc2cccc(Br)n2)c2ccc(-c3cnc(C)nc3)cc21 [Compound 61, (2S,4R)-1-(2-(1-acetyl-6-(2-methylpyrimidin-5-yl)-1H-indol-3-yl)acetyl)-N-(6-bromopyridin-2-yl)-4-fluoropyrrolidine-2-carboxamide]",< 1000
25,"NC(=O)c1nn(CC(=O)N2C[C@H](F)C[C@H]2C(=O)Nc2cccc(-c3ccc4nc(C(=O)O)[nH]c4c3Cl)c2F)c2ccccc12 [Compound 62, 6-(3-((2S,4R)-1-(2-(3-carbamoyl-1H-indazol-1-yl)acetyl)-4-fluoropyrrolidine-2-carboxamido)-2-fluorophenyl)-7-chloro-1H-benzo[d]imidazole-2-carboxylic acid]",< 1000
26,"CC(C)(C)OC(=O)N=S(C)(=O)c1cccc(-c2cccc(NC(=O)[C@@H]3C[C@@H](F)CN3C(=O)Cn3nc(C(N)=O)c4ccccc43)c2F)c1 (stereo partly drawn) [Compound 64, tert-butyl ((3′-((2S,4R)-1-(2-(3-carbamoyl-1H-indazol-1-yl)acetyl)-4-fluoropyrrolidine-2-carboxamido)-2′-fluoro-[1,1′-biphenyl]-3-yl)(methyl)(oxo)-[…]^6-sulfanylidene)-[…]^4-azanecarboxylate]",1000 to 10000
27,"CS(=N)(=O)c1cccc(-c2cccc(NC(=O)[C@@H]3C[C@@H](F)CN3C(=O)Cn3nc(C(N)=O)c4ccccc43)c2F)c1 (stereo partly drawn) [Compound 65, 1-(2-((2S,4R)-4-fluoro-2-(2-fluoro-3′-(S-methylsulfonimidoyl)biphenyl-3-ylcarbamoyl)pyrrolidin-1-yl)-2-oxoethyl)-1H-indazole-3-carboxamide]",1000 to 10000
28,"NC(=O)c1nn(CC(=O)N2C[C@H](F)C[C@H]2C(=O)Nc2cccc(-c3ccccc3Cl)c2F)c2cn[nH]c12 [Compound 66, 1-(2-((2S,4R)-2-(2′-chloro-2-fluorobiphenyl-3-ylcarbamoyl)-4-fluoropyrrolidin-1-yl)-2-oxoethyl)-1,4-dihydropyrazolo[4,3-c]pyrazole-3-carboxamide]",< 1000
